Like-named read-outs stand apart in the source and are kept apart here. Numbered stars: 1 amine (or outer) side, 2 acyl side, 3 side chain; on linkers, the order of the positions; unused ones are H or OH. Bridge positions count the residues as written; N and C are the ends. Square brackets hold non-standard residues; d marks the D form. Peptide text beside a SMILES is read from it. * marks the point of attachment. C20 diacid = O=C(O)CCCCCCCCCCCCCCCCCCC(=O)*; γGlu = O=C(O)[C@H](CCC(=O)[*:2])N[*:1]; NMeI = CC[C@H](C)[C@H](NC)C(=O)O; NMeA = CN[C@@H](C)C(=O)O; Sar = CNCC(=O)O
Experiments:
[1] = Solubility assessment (turbidity absorbance at 325 nm); assay type: physicochemical; conditions: stock 2 mg/ml diluted 1:1, ambient temperature (typically 25°C), n=1; for Solubility, Acetate buffer pH 4: 100 mM acetate buffer pH 4.0; for Solubility, Acetate buffer pH 5: 100 mM acetate buffer pH 5.0; for Solubility, Histidine buffer pH 6: 100 mM histidine buffer pH 6.0; for Solubility, Histidine buffer pH 7: 100 mM histidine buffer pH 7.0; for Solubility, Phosphate buffer pH 6: 100 mM phosphate buffer pH 6.0; for Solubility, Phosphate buffer pH 7: 100 mM phosphate buffer pH 7.0; for Solubility, Phosphate buffer pH 7.5: 100 mM phosphate buffer pH7.5
How it was run: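 Turbidity read as absorbance at 325 nm (also 280 nm), single samples at ambient temperature (typically 25°C); ≤ 0.02 units counts as ≥ 1 mg/ml soluble. Samples made by 1:1 dilution of a 2 mg/ml acidic stock into 100 mM acetate, histidine or phosphate buffers, pH 4.0–7.5.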

[2] = target: T1, human calcitonin receptor (hCTR2) (Homo sapiens, UniProt P30988); assay: hCTR2 assay: induction of cAMP (AlphaScreen cAMP Assay kit) in COS7 cells expressing hCTR2; assay type: cell-based
T1 construct: expressed in transfected cells
T1 sequence (P30988 25-474): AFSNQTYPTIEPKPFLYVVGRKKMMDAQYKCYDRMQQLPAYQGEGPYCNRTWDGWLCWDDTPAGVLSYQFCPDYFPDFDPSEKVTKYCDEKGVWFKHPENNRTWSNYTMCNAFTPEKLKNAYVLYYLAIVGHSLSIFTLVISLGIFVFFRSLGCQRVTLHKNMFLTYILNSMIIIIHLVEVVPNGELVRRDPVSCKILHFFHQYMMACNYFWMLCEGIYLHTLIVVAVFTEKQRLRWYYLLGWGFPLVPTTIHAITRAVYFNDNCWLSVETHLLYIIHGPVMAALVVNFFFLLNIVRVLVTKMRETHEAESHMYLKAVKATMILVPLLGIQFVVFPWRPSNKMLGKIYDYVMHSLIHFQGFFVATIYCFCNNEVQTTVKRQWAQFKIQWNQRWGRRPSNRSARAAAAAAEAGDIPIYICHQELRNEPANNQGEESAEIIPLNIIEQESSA
How it was run: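 Cells were seeded one day ahead, washed, then exposed to rising peptide concentrations for 15 min at 37° C in the presence of 100 µM IBMX. After lysis for 10 min at room temperature, cAMP was quantified by AlphaScreen and EC50 values derived by 4PL fitting.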

[3] = cAMP induction in COS7 cells expressing hCTR2, average of a minimum of 3 determinations, read-out: hCTR2 EC50

Solubility, Acetate buffer pH 4 [1] | Solubility, Acetate buffer pH 5 [1] | Solubility, Histidine buffer pH 6 [1] | Solubility, Histidine buffer pH 7 [1] | Solubility, Phosphate buffer pH 6 [1] | Solubility, Phosphate buffer pH 7 [1] | Solubility, Phosphate buffer pH 7.5 [1] | EC50 [2, 3] [nM] | Compound | EC50 [2] [nM]
II (II indicates solubility ≤ 1 mg/ml) | II (II indicates solubility ≤ 1 mg/ml) | II (II indicates solubility ≤ 1 mg/ml) | II (II indicates solubility ≤ 1 mg/ml) | II (II indicates solubility ≤ 1 mg/ml) | II (II indicates solubility ≤ 1 mg/ml) | II (II indicates solubility ≤ 1 mg/ml) | 0.076 | CC[C@H](C)[C@@H](C(=O)N[C@@H](CO)C(=O)N[C@@H](CO)C(=O)N[C@H](C(=O)N[C@@H](CC(N)=O)C(=O)N[C@H](C(=O)NCC(=O)N[C@@H](CO)C(=O)N[C@@H](CC(N)=O)C(=O)N[C@H](C(=O)N1CCC[C@H]1C(N)=O)[C@@H](C)O)C(C)C)[C@@H](C)O)N(C)C(=O)CN(C)C(=O)[C@H](Cc1ccccc1)NC(=O)[C@H](CC(N)=O)NC(=O)[C@H](CC(N)=O)NC(=O)[C@H](CO)NC(=O)[C@H](CO)NC(=O)[C@H](Cc1c[nH]cn1)NC(=O)[C@H](Cc1c[nH]cn1)NC(=O)[C@H](CC(C)C)NC(=O)[C@H](Cc1ccccc1)NC(=O)[C@H](CCC(=O)O)NC(=O)[C@H](C)NC(=O)[C@H](CC(C)C)NC(=O)[C@H](CCCNC(=N)N)NC(=O)[C@H](CCC(N)=O)NC(=O)[C@@H](NC(=O)[C@H](C)NC(=O)[C@@H]1CSSC[C@H](NC(=O)[C@H](CCCNC(=N)N)NC(=O)CC[C@H](NC(=O)CCCCCCCCCCCCCCCCCCC(=O)O)C(=O)O)C(=O)N[C@@H](CC(N)=O)C(=O)N[C@@H]([C@@H](C)O)C(=O)N[C@@H](C)C(=O)N[C@@H]([C@@H](C)O)C(=O)N1)[C@@H](C)O [Compound 55, [19CD]-isoGlu-RC()NTATC()ATQRLAEFLHHSSNNF-Gly(Me)-Ile(Me)-SSTNVGSNTP-NH2] ({C20 diacid-γGlu}-RCNTATCATQRLAEFLHHSSNNF[Sar][NMeI]SSTNVGSNTP-NH2; disulfide 2-7) | –
SS (SS indicates solubility ≥ 1mg/ml) | II (II indicates solubility ≤ 1 mg/ml) | II (II indicates solubility ≤ 1 mg/ml) | II (II indicates solubility ≤ 1 mg/ml) | II (II indicates solubility ≤ 1 mg/ml) | II (II indicates solubility ≤ 1 mg/ml) | II (II indicates solubility ≤ 1 mg/ml) | 0.14 | CC[C@H](C)[C@@H](C(=O)N[C@@H](CC(C)C)C(=O)N[C@@H](CO)C(=O)N[C@@H](CO)C(=O)N[C@H](C(=O)N[C@@H](CC(N)=O)C(=O)N[C@H](C(=O)NCC(=O)N[C@@H](CO)C(=O)N[C@@H](CC(N)=O)C(=O)N[C@H](C(=O)N1CCC[C@H]1C(N)=O)[C@@H](C)O)C(C)C)[C@@H](C)O)N(C)C(=O)[C@H](C)NC(=O)[C@H](C)N(C)C(=O)[C@H](Cc1ccccc1)NC(=O)[C@H](CC(N)=O)NC(=O)[C@H](CC(N)=O)NC(=O)[C@H](CO)NC(=O)[C@H](CO)NC(=O)[C@H](Cc1c[nH]cn1)NC(=O)[C@H](Cc1c[nH]cn1)NC(=O)[C@H](CC(C)C)NC(=O)[C@H](Cc1ccccc1)NC(=O)[C@H](CCC(=O)O)NC(=O)[C@H](C)NC(=O)[C@H](CC(C)C)NC(=O)[C@H](CCCNC(=N)N)NC(=O)[C@H](CCC(N)=O)NC(=O)[C@@H](NC(=O)[C@H](C)NC(=O)[C@@H]1CSSC[C@H](NC(=O)[C@H](CCCNC(=N)N)NC(=O)CC[C@H](NC(=O)CCCCCCCCCCCCCCCCCCC(=O)O)C(=O)O)C(=O)N[C@@H](CC(N)=O)C(=O)N[C@@H]([C@@H](C)O)C(=O)N[C@@H](C)C(=O)N[C@@H]([C@@H](C)O)C(=O)N1)[C@@H](C)O [Compound 56, [19CD]-isoGlu-RC()NTATC()ATQRLAEFLHHSSNNF-Ala(Me)-A-Ile(Me)-LSSTNVGSNTP-NH2] ({C20 diacid-γGlu}-RCNTATCATQRLAEFLHHSSNNF[NMeA]A[NMeI]LSSTNVGSNTP-NH2; disulfide 2-7) | –
SS (SS indicates solubility ≥ 1mg/ml) | SS (SS indicates solubility ≥ 1mg/ml) | SS (SS indicates solubility ≥ 1mg/ml) | SS (SS indicates solubility ≥ 1mg/ml) | SS (SS indicates solubility ≥ 1mg/ml) | II (II indicates solubility ≤ 1 mg/ml) | SS (SS indicates solubility ≥ 1mg/ml) | 0.11 | CC[C@H](C)[C@@H](C(=O)N[C@@H](CC(C)C)C(=O)N[C@@H](CO)C(=O)N[C@@H](CO)C(=O)N[C@H](C(=O)N[C@@H](CC(N)=O)C(=O)N[C@H](C(=O)NCC(=O)N[C@@H](CO)C(=O)N[C@@H](CC(N)=O)C(=O)N[C@H](C(=O)N1CCC[C@H]1C(N)=O)[C@@H](C)O)C(C)C)[C@@H](C)O)N(C)C(=O)CN(C)C(=O)[C@H](Cc1ccccc1)NC(=O)[C@H](CC(N)=O)NC(=O)[C@H](CC(N)=O)NC(=O)[C@H](CO)NC(=O)[C@H](CO)NC(=O)[C@H](CCCNC(=N)N)NC(=O)[C@H](Cc1c[nH]cn1)NC(=O)[C@H](CC(C)C)NC(=O)[C@H](Cc1ccccc1)NC(=O)[C@H](CCC(=O)O)NC(=O)[C@H](C)NC(=O)[C@H](CC(C)C)NC(=O)[C@H](CCCNC(=N)N)NC(=O)[C@H](CCC(N)=O)NC(=O)[C@@H](NC(=O)[C@H](C)NC(=O)[C@@H]1CSSC[C@H](NC(=O)[C@H](CCCCN)NC(=O)CC[C@H](NC(=O)CCCCCCCCCCCCCCCCCCC(=O)O)C(=O)O)C(=O)N[C@@H](CC(N)=O)C(=O)N[C@@H]([C@@H](C)O)C(=O)N[C@@H](C)C(=O)N[C@@H]([C@@H](C)O)C(=O)N1)[C@@H](C)O [Compound 58, [19CD]-isoGlu-KC()NTATC()ATQRLAEFLHRSSNNF-Gly(Me)-Ile(Me)-LSSTNVGSNTP-NH2] ({C20 diacid-γGlu}-KCNTATCATQRLAEFLHRSSNNF[Sar][NMeI]LSSTNVGSNTP-NH2; disulfide 2-7) | –

Compound | Solubility, Acetate buffer pH 4 [1] | Solubility, Acetate buffer pH 5 [1] | Solubility, Histidine buffer pH 6 [1] | Solubility, Histidine buffer pH 7 [1] | Solubility, Phosphate buffer pH 6 [1] | Solubility, Phosphate buffer pH 7 [1] | Solubility, Phosphate buffer pH 7.5 [1] | EC50 [2, 3] [nM] | EC50 [2] [nM]
CC[C@H](C)[C@@H](C(=O)N[C@@H](CC(C)C)C(=O)N[C@H](CO)C(=O)N[C@@H](CO)C(=O)N[C@H](C(=O)N[C@@H](CC(N)=O)C(=O)N[C@H](C(=O)NCC(=O)N[C@@H](CO)C(=O)N[C@@H](CC(N)=O)C(=O)N[C@H](C(=O)N1CCC[C@H]1C(N)=O)[C@@H](C)O)C(C)C)[C@@H](C)O)N(C)C(=O)[C@H](C)NC(=O)CN(C)C(=O)[C@@H](Cc1ccccc1)NC(=O)[C@H](CC(N)=O)NC(=O)[C@H](CC(N)=O)NC(=O)[C@H](CO)NC(=O)[C@H](CO)NC(=O)[C@H](Cc1c[nH]cn1)NC(=O)[C@H](Cc1c[nH]cn1)NC(=O)[C@H](CC(C)C)NC(=O)[C@H](Cc1ccccc1)NC(=O)[C@H](CCC(=O)O)NC(=O)[C@H](C)NC(=O)[C@H](CC(C)C)NC(=O)[C@H](CCCNC(=N)N)NC(=O)[C@H](CCC(N)=O)NC(=O)[C@@H](NC(=O)[C@H](C)NC(=O)[C@@H]1CSSC[C@H](NC(=O)[C@H](CCCNC(=N)N)NC(=O)CC[C@H](NC(=O)CCCCCCCCCCCCCCCCCCC(=O)O)C(=O)O)C(=O)N[C@@H](CC(N)=O)C(=O)N[C@@H]([C@@H](C)O)C(=O)N[C@@H](C)C(=O)N[C@@H]([C@@H](C)O)C(=O)N1)[C@@H](C)O [Compound 59, [19CD]-isoGlu-RC()NTATC()ATQRLAEFLHHSSNN-DPhe-Gly(Me)-A-Ile(Me)-L-DSer-STNVGSNTP-NH2] ({C20 diacid-γGlu}-RCNTATCATQRLAEFLHHSSNN[dF][Sar]A[NMeI]L[dS]STNVGSNTP-NH2; disulfide 2-7) | SS (SS indicates solubility ≥ 1mg/ml) | SS (SS indicates solubility ≥ 1mg/ml) | SS (SS indicates solubility ≥ 1mg/ml) | SS (SS indicates solubility ≥ 1mg/ml) | SS (SS indicates solubility ≥ 1mg/ml) | II (II indicates solubility ≤ 1 mg/ml) | SS (SS indicates solubility ≥ 1mg/ml) | – | 0.14

Source: patent publication EP3046573B1, “AMYLIN ANALOGUES” (Zealand Pharma A/S, priority 2013, dated 2015)
